Patent US20040225128A1 (priority 2001, published 2004)
Counter-ions that a name gives are not always drawn. Like-named read-outs stand apart in the source and are kept apart here.

Tests used:
[1] = as described in European Patent 0223403B; cited from earlier work
[2] = as described in European Patent 0223403B; cited from earlier work; remark: listed apart in the source
Hygroscopicity = assay type: physicochemical

Row | SMILES | Stability (in words) [1] | Hygroscopicity (in words) [2] | Hygroscopicity (in words) (Hygroscopicity)
1 | Fc1ccc([C@@H]2CCNC[C@H]2COc2ccc3c(c2)OCO3)cc1 [Example 9, paroxetine hydrochloride hemi hydrate] | stable | non-hygroscopic | –
2 | Fc1ccc([C@@H]2CCNC[C@H]2COc2ccc3c(c2)OCO3)cc1 [Example 3, paroxetine isethionate] | – | – | practically no adverse hygroscopicity characteristics
